The target of test [1] is T1, α4β2α5 nAChR (Homo sapiens, UniProt P17787+P30532+P43681).
In test [2] the target is T2, (α4β2)2α4 nAChR (Homo sapiens, UniProt P17787+P43681). The test can be described thus: cell-based. Conditions: read-out: ACh EC90.
The target in test [3] is T3, α7 nAChR (Homo sapiens, UniProt P36544). The test can be described thus: cell-based. In kind it is cell-based.
Target sequence in this assay (P36544 23-502 limits assumed): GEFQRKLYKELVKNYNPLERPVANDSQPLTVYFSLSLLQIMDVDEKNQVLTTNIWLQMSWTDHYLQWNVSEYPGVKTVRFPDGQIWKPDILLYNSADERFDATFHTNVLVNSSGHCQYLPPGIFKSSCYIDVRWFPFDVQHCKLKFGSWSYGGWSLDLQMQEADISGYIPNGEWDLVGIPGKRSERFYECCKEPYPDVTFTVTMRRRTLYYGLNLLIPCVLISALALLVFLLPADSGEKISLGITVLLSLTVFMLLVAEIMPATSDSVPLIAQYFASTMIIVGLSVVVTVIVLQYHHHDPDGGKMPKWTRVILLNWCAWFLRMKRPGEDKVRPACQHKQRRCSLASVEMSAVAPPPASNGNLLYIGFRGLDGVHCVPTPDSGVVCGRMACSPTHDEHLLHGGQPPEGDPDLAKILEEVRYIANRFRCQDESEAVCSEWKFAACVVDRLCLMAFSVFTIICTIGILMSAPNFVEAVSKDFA
For test [4], the target named is T4, (α4β2)2β2 nAChR (Homo sapiens, UniProt P17787+P43681). In words: cell-based.
T4 sequence (P43681 27-627 limits assumed): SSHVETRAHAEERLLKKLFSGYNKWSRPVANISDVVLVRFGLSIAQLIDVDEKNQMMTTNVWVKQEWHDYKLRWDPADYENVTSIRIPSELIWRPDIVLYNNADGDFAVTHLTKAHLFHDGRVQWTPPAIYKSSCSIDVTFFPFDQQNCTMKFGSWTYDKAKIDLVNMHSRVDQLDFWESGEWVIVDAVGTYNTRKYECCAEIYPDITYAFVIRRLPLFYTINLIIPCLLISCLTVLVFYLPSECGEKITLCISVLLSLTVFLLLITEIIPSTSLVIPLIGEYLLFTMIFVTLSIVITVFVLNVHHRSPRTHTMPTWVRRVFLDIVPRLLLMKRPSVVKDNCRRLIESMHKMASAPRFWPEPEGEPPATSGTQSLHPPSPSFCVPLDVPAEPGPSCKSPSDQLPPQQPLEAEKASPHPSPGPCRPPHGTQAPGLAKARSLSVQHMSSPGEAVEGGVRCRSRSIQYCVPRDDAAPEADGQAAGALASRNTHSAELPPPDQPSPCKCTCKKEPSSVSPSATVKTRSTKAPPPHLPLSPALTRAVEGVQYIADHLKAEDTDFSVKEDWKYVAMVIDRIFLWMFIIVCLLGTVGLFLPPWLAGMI
T4 sequence (P17787 26-502 limits assumed): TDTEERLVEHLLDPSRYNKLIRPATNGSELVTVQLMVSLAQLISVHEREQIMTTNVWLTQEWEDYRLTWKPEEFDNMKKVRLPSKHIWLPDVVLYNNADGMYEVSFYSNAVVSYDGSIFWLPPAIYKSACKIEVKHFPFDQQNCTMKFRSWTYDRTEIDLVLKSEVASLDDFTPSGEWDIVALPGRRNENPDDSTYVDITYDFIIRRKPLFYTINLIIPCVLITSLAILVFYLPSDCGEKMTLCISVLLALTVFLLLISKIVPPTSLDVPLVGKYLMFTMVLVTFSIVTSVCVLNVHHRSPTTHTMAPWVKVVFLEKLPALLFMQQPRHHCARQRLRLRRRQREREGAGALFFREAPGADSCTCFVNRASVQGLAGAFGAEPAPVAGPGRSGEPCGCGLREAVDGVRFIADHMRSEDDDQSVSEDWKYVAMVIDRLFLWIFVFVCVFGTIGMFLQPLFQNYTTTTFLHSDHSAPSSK
Test [5] has as its target T5, (α3β2)2β2 nAChR (Homo sapiens, UniProt P17787+P32297). In words: cell-based.
A further test deals with β3-α6-β2-α4-β2 nAChR (Homo sapiens, UniProt P17787+P43681+Q15825). In words: cell-based.
Test [6] addresses T6, (α3β4)2β4 nAChR (Homo sapiens, UniProt P30926+P32297).
Test [7] deals with T3, α7 nAChR. In kind it is cell-based.
Target sequence in this assay (P36544 23-502): as the sequence (P36544 23-502 limits assumed) above
The target of test [8] is T1, α4β2α5 nAChR. In words: cell-based. The conditions noted are these: read-out: ACh EC90.
In test [9] the target is T7, (α3β4)2α3 nAChR (Homo sapiens, UniProt P30926+P32297).
Test [10] concerns the target T3, α7 nAChR. The test can be described thus: cell-based. It is filed as cell-based. The source holds these as a separate data set.
Target sequence in this assay (P36544 23-502 limits assumed): as above
Test [11] concerns the target T4, (α4β2)2β2 nAChR. In words: cell-based. The conditions noted are these: read-out: % Max Inhibition (95% CI).
Test [12] addresses T2, (α4β2)2α4 nAChR. In words: cell-based.
For a further test, the target named is (α3β2)2α3 nAChR (Homo sapiens, UniProt P17787+P32297). In words: cell-based. The conditions noted are these: read-out: % Max Inhibition (95% CI).
The target of test [13] is T6, (α3β4)2β4 nAChR. In words: cell-based. The conditions noted are these: read-out: % Max Inhibition (95% CI).
For test [14], the target named is T5, (α3β2)2β2 nAChR. In words: cell-based. Conditions: read-out: % Max Inhibition (95% CI).
The target in test [15] is T7, (α3β4)2α3 nAChR. In words: cell-based. The conditions noted are these: read-out: % Max Inhibition (95% CI).
In the next test the target is α6/α3β2β3 nAChR (Homo sapiens, UniProt P17787+P32297+Q05901+Q15825). In words: cell-based.
The target in test [16] is T1, α4β2α5 nAChR. In words: cell-based.
Where [17] appears, read: read-out: % Max Inhibition (95% CI).

Three molecules from article PMC11148329 (Frontiers in Cellular and Infection Microbiology, 2024) can be followed below.

“And” between values parts separate entries of the source, which are not always exact repeats. Identical values can stand only once. Like-named read-outs stand apart in the source and are kept apart here.

For orientation: EC90 means the point of the concentration-response curve where the effect stands at 90%. The IC50 is the concentration that gives 50% inhibition. In general, inhibition refers to the drop in the measured response relative to a control, in per cent.

T5 sequence (P32297 32-505 limits assumed): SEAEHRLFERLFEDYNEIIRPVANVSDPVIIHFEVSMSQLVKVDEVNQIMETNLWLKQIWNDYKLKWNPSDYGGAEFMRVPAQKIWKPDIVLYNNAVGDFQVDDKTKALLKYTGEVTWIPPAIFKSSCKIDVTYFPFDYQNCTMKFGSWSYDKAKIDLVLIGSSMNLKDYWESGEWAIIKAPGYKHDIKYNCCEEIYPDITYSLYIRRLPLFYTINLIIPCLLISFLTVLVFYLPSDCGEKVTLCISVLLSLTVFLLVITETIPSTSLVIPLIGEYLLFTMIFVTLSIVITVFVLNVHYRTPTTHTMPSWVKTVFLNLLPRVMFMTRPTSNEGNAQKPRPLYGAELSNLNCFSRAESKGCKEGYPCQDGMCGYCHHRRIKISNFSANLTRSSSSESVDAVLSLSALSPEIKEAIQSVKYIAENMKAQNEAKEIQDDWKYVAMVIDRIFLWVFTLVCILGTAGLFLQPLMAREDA
T5 sequence (P17787 26-502 limits assumed): as the sequence (P17787 26-502 limits assumed) above
T1 sequence (P43681 29-627 limits assumed): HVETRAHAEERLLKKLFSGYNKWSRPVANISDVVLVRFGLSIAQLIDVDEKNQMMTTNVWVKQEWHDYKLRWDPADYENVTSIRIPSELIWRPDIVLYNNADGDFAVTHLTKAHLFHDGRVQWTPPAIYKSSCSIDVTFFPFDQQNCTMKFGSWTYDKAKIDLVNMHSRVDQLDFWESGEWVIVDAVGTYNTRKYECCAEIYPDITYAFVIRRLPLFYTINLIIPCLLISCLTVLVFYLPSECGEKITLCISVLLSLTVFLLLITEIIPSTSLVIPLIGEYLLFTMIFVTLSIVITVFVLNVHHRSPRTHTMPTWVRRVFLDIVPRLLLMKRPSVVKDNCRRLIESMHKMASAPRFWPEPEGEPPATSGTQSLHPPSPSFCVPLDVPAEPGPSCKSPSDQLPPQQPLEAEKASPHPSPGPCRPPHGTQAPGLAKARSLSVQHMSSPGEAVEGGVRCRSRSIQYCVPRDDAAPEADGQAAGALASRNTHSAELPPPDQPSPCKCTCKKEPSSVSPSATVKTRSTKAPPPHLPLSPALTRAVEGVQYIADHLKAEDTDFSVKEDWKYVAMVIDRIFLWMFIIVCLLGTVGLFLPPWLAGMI
T1 sequence (P17787 26-502 limits assumed): as the sequence (P17787 26-502 limits assumed) above
T1 sequence (P30532 23-468 partner limits assumed): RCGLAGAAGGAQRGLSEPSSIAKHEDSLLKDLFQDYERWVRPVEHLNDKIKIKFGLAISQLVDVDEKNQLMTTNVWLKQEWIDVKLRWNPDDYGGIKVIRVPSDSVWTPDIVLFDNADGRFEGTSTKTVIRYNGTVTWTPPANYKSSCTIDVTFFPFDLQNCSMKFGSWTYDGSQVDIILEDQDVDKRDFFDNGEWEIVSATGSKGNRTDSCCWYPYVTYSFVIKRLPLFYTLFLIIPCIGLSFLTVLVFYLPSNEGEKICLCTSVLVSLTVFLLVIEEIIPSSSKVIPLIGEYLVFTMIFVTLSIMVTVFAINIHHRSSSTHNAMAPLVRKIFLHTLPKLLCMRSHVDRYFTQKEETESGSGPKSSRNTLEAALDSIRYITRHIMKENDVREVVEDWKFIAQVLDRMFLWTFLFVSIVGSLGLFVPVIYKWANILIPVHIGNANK

With `CC(=O)OCC[N+](C)(C)C` [ACh, acetylcholine], the “NH (1) (95% CI)” value on α4β2α5 nAChR [1] is 0.90 (0.82 – 0.99); at (α4β2)2β2 nAChR [4], 0.85 (0.76 – 0.95); at (α3β2)2β2 nAChR [5], 0.95 (0.84 – 1.1); at β3-α6-β2-α4-β2 nAChR it was 0.77 (0.69 – 0.85); on (α3β4)2β4 nAChR [6] it was 1.0 (0.92 – 1.2); on α7 nAChR [7] it was 1.6 (1.4 – 1.9). Further, the “NH (1) (95% CI)” value on (α3β4)2α3 nAChR [9] is given as 1.9 (1.7 – 2.1). The EC90 worked out at 316 µM at (α4β2)2α4 nAChR [2]; 100 µM on (α4β2)2β2 nAChR [4] (read-out: ACh EC90); 316 µM at (α3β2)2β2 nAChR [5] (read-out: ACh EC90); 40 µM at β3-α6-β2-α4-β2 nAChR (read-out: ACh EC90); 1260 µM on α7 nAChR [7] (read-out: ACh EC90); 20 µM at α4β2α5 nAChR [8]. Also, the “NH (95% CI) of ACh curve, drug treatment none” value at α7 nAChR [3] was 1.1 (1.0 - 1.2).

As to `CCN1C[C@]2(COC(=O)c3ccccc3N3C(=O)C[C@H](C)C3=O)CC[C@H](OC)[C@@]34[C@@H]5C[C@H]6[C@H](OC)[C@@H]5[C@](O)(C[C@@H]6OC)[C@@](O)([C@@H](OC)[C@H]23)[C@@H]14` [MLA, Methyllycaconitine], at α7 nAChR [3], the “NH (95% CI) of ACh curve with co-applied MLA” value is 0.9 (0.8 - 1.1) and 1.1 (0.9 - 1.2). The IC50 at α7 nAChR [3] (IC50 (95% CI): ACh apparent potency with co-applied MLA) was 330 µM and 412 µM. For the same molecule, at α7 nAChR [10], the “block of ACh EC90 response by MLA” value is on record as “prevented α7 nAChR activation”.

On to `CC[C@H](C)[C@H](NC(=O)[C@H](CC(=O)O)NC(=O)[C@H](CS)NC(=O)[C@H](CO)NC(=O)[C@@H](NC(=O)CNC(=O)[C@H](CC(C)C)NC(=O)[C@H](CCCNC(=N)N)NC(=O)[C@@H]1CCCN1C(=O)[C@H](CC(N)=O)NC(=O)[C@H](CCC(=O)O)NC(=O)[C@@H]1CCCN1C(=O)[C@H](CCSC)NC(=O)[C@H](Cc1c[nH]c2ccccc12)NC(=O)[C@@H](NC(=O)[C@@H](NC(=O)[C@@H](N)Cc1ccc(O)cc1)[C@@H](C)O)[C@@H](C)CC)[C@@H](C)O)C(=O)N[C@@H](Cc1ccccc1)C(=O)N[C@H](C(=O)N[C@@H](CC(N)=O)C(=O)N[C@@H](CO)C(=O)N[C@@H](CCCNC(=N)N)C(=O)NCC(=O)N[C@@H](CCCCN)C(=O)N[C@@H](CCCNC(=N)N)C(=O)N[C@@H](C)C(=O)N[C@@H](CO)C(=O)N[C@@H](CCCCN)C(=O)NCC(=O)O)[C@@H](C)O` [RVG peptide], for which the inhibition at 1000 µM was found to be 46% at (α4β2)2β2 nAChR [11]; 76% on (α4β2)2α4 nAChR [12] (setting [17]); 67% at (α3β2)2α3 nAChR; 22% at (α3β4)2β4 nAChR [13]; 57% at (α3β2)2β2 nAChR [14]; 49% on (α3β4)2α3 nAChR [15]. The inhibition at 1000 µM was 82% on α6/α3β2β3 nAChR (setting [17]) and 67% on α4β2α5 nAChR [16] (setting [17]). Also, the IC50 was 270 µM against (α4β2)2α4 nAChR [12] (IC50 (95% CI)); 220 to 340 µM at (α4β2)2α4 nAChR [12] (IC50, 95% CI); 25 µM on α7 nAChR [10]; 300 µM against α6/α3β2β3 nAChR; 340 µM at α4β2α5 nAChR [16]. The “% Max Inhibition of ACh EC90 (95% CI)” value at α7 nAChR [10] is reported as 98 (97 – 99) %.
